From publication PMC2721768 (Purinergic Signalling, 2008)
Marks after values point to notes of the source that are not given here.

Assays:
[1] = test system: ectonucleotidase activity in rat vas deferens tissue; settings: at 100 μM; cited from earlier work
rat NTPDase1 = target: T1, rat NTPDase1 (Rattus norvegicus, UniProt P97687); assay: Inhibition of rat NTPDase1; settings: for percent inhibition at 1 mM NTPDase1 / inhibition of rat NTPDase1 (in words): rat NTPDase1; for percent inhibition at 1 mM NTPDase1: 1 mM compound, ATP 400 μM; for inhibition at 1000 µM: read-out: percent inhibition at 1 mM NTPDase1
T1 sequence (P97687 1-511): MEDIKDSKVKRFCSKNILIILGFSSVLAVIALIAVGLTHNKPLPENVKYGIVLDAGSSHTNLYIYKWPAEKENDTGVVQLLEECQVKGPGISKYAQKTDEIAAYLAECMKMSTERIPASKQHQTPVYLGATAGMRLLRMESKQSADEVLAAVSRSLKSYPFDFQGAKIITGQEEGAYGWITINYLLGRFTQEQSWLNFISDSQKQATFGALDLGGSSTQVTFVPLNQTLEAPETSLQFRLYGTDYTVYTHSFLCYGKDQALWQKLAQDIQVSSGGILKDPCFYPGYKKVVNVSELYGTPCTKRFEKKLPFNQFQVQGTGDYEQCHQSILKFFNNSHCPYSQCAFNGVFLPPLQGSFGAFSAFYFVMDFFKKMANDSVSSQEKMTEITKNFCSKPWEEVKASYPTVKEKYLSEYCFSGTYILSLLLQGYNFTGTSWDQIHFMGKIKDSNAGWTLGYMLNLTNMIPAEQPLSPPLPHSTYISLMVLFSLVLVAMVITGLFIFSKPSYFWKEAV

P2Y2 = settings: read-out: IC50 P2Y2 antagonist; cited from earlier work
[2] = Solubility and stability under the test conditions; type: physicochemical; settings: 3 mM in HEPES assay buffer (diluted from 10 mM aqueous solution)
rat NTPDase3 = target: T2, rat NTPDase3 (Rattus norvegicus, UniProt A6I415); assay: Inhibition of rat NTPDase3; settings: for inhibition at 1000 µM: read-out: percent inhibition at 1 mM NTPDase3
T2 sequence (A6I415 1-529): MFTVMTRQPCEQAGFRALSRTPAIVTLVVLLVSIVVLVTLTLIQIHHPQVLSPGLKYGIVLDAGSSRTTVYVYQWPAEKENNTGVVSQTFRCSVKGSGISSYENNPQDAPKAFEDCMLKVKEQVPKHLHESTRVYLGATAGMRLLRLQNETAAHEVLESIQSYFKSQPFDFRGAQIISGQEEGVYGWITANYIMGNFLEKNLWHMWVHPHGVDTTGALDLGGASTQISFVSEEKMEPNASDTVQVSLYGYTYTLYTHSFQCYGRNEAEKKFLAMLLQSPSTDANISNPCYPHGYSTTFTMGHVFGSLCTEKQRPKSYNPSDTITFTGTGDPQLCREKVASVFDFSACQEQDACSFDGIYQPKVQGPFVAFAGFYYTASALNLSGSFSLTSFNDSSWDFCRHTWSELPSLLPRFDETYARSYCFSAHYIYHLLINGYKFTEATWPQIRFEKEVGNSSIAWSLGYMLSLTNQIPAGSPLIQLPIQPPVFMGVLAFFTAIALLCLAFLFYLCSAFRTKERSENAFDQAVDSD

NTPDases1, 2, and 3 = settings: rat NTPDase1, 2 and 3
rat NTPDase2 = target: T3, rat NTPDase2 (Rattus norvegicus, UniProt O35795); assay: Inhibition of rat NTPDase2; settings: for inhibition at 1000 µM: read-out: percent inhibition at 1 mM NTPDase2
T3 sequence (O35795 1-495): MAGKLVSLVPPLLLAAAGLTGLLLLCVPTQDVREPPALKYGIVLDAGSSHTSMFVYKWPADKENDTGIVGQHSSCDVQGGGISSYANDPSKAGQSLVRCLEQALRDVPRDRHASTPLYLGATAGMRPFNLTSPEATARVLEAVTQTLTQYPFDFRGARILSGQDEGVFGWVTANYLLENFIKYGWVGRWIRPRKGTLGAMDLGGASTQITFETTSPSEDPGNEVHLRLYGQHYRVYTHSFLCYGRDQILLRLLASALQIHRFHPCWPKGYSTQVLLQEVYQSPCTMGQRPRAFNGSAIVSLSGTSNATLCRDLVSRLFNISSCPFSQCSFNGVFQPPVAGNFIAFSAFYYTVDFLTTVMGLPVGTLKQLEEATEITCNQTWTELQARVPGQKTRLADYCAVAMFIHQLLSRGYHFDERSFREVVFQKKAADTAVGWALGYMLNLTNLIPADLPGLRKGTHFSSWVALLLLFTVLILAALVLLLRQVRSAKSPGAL

[3] = rat NTPDase3, inhibitor 10, 20, and 30 μM

| Structure (SMILES) | inhibition at 1000 µM (rat NTPDase1) | inhibition at 1000 µM (rat NTPDase2) | inhibition at 1000 µM (rat NTPDase3) | further results |
| --- | --- | --- | --- | --- |
| Nc1c(S(=O)(=O)O)cc(Nc2ccccc2)c2c1C(=O)c1ccccc1C2=O [Compound 11] | – | – | – | inhibition of ATP degradation in rat vas deferens tissue [1]: inactive |
| Cc1ccccc1Nc1cc(S(=O)(=O)O)c(N)c2c1C(=O)c1ccccc1C2=O [Compound 12] | – | – | – | percent inhibition at 1 mM NTPDase1 (rat NTPDase1): (25%) |
| Cc1cccc(Nc2cc(S(=O)(=O)O)c(N)c3c2C(=O)c2ccccc2C3=O)c1C [Compound 14] | – | – | – | percent inhibition at 1 mM NTPDase1 (rat NTPDase1): (67%)^b |
| COc1ccccc1Nc1cc(S(=O)(=O)O)c(N)c2c1C(=O)c1ccccc1C2=O [Compound 16] | – | – | – | IC50 (P2Y2): ~9 µM; inhibition of rat NTPDase1 (in words) (rat NTPDase1): weak; percent inhibition at 1 mM NTPDase1 (rat NTPDase1): (57%) |
| CCOc1ccccc1Nc1cc(S(=O)(=O)O)c(N)c2c1C(=O)c1ccccc1C2=O [Compound 17] | – | – | – | percent inhibition at 1 mM NTPDase1 (rat NTPDase1): (17%) |
| Nc1c(S(=O)(=O)O)cc(Nc2ccc(Cl)cc2)c2c1C(=O)c1ccccc1C2=O [Compound 18, 1-Amino-2-sulfo-4-p-chloroanilinoanthraquinone] | – | – | – | time until precipitation (in words) [2]: short period of time; Ki (rat NTPDase3): 16.4 ± 1.6 µM; effect on Vmax value of NTPDase3 (rat NTPDase3; [3]): not affected; mechanism of inhibition (NTPDase3 kinetics, Lineweaver-Burk plot) (rat NTPDase3; [3]): competitive; effect on Km value of NTPDase3 (rat NTPDase3; rat NTPDase3, with increasing concentration of inhibitor (10, 20, 30 μM)): increased |
| CC(=O)Nc1ccc(Nc2cc(S(=O)(=O)O)c(N)c3c2C(=O)c2ccccc2C3=O)cc1 [Compound 19] | – | – | – | IC50 (P2Y2): 6 to 12 µM; NTPDase inhibitory activity (in words) (NTPDases1, 2, and 3): nearly inactive; percent inhibition at 1 mM NTPDase1 (rat NTPDase1): (15%) |
| Nc1c(S(=O)(=O)[O-])cc(Nc2cccc3ccccc23)c2c1C(=O)c1ccccc1C2=O.[Na+] [Compound 20, Sodium 1-amino-4-(1-naphthylamino)-9,10-dioxo-9,10-dihydroanthracene 2-sulfonate] | 0% | 0% | – | inhibition of rat NTPDase1 (in words) (rat NTPDase1): not inhibitory; inhibition of rat NTPDase2 (in words) (rat NTPDase2; rat NTPDase2): not inhibitory |
| Nc1c(S(=O)(=O)O)cc(Nc2ccc3ccccc3c2)c2c1C(=O)c1ccccc1C2=O [Compound 21, Sodium 1-amino-4-(2-naphthylamino)-9,10-dioxo-9,10-dihydroanthracene 2-sulfonate] | – | – | – | Ki (rat NTPDase3): 2.22 ± 1.03 µM |
| COc1ccc(CCNc2cc(S(=O)(=O)O)c(N)c3c2C(=O)c2ccccc2C3=O)cc1OC [Compound 22, Sodium 1-amino-4-(3,4-dimethoxyphenethylamino)-9,10-dioxo-9,10-dihydroanthracene 2-sulfonate] | – | – | – | Ki (rat NTPDase1): 173 ± 6 µM; Ki (rat NTPDase2): 54.1 ± 6.8 µM; Ki (rat NTPDase3): 23.4 ± 0.4 µM |
| COS(=O)(=O)c1cc(Br)c2c(c1N)C(=O)c1ccccc1C2=O [Compound 27, 1-Amino-4-bromoanthraquinone-2-sulfonic acid methyl ester] | 0% | 0% | 0% | – |
| Nc1c(S(=O)(=O)Oc2ccc([N+](=O)[O-])cc2)cc(Br)c2c1C(=O)c1ccccc1C2=O [Compound 30, 1-Amino-4-bromoanthraquinone-2-sulfonic acid 4-nitrophenyl ester] | 0% | 0% | 0% | – |
| Nc1c(S(=O)(=O)Nc2ccccc2)cc(Br)c2c1C(=O)c1ccccc1C2=O [Compound 31, 1-Amino-4-bromoanthraquinone-2-sulfonic acid phenyl amide] | 0% | 0% | 0% | – |

Second part, led by results:

| inhibition at 1000 µM (rat NTPDase1) | inhibition at 1000 µM (rat NTPDase2) | inhibition at 1000 µM (rat NTPDase3) | Structure (SMILES) | further results |
| --- | --- | --- | --- | --- |
| 0% | 0% | 0% | Cc1cc(Nc2ccccc2)c2c(c1N)C(=O)c1ccccc1C2=O [Compound 23, 1-Amino-2-methyl-4-phenylaminoanthraquinone] | – |
| 0% | 0% | 0% | Cc1cccc(Nc2cc(C)c(N)c3c2C(=O)c2ccccc2C3=O)c1 [Compound 24, 1-Amino-2-methyl-4-(3-methylphenylamino)anthraquinone] | – |
| 0% | 0% | 0% | Cc1ccc(Nc2cc(C)c(N)c3c2C(=O)c2ccccc2C3=O)cc1 [Compound 25, 1-Amino-2-methyl-4-(4-methylphenylamino)anthraquinone] | – |
| 0% | 0% | 0% | Cc1cc(Nc2cccc3ccccc23)c2c(c1N)C(=O)c1ccccc1C2=O [Compound 26, 1-Amino-2-methyl-4-(1-naphthylamino)anthraquinone] | – |
| 0% | 0% | 0% | Nc1c(S(=O)(=O)Oc2ccccc2[N+](=O)[O-])cc(Br)c2c1C(=O)c1ccccc1C2=O [Compound 28, 1-Amino-4-bromoanthraquinone-2-sulfonic acid 2-nitrophenyl ester] | – |
| 0% | 0% | 0% | Nc1c(S(=O)(=O)Oc2cccc([N+](=O)[O-])c2)cc(Br)c2c1C(=O)c1ccccc1C2=O [Compound 29, 1-Amino-4-bromoanthraquinone-2-sulfonic acid 3-nitrophenyl ester] | – |
| 0% | 0% | 0% | Nc1c(S(=O)(=O)NCc2ccccc2)cc(Br)c2c1C(=O)c1ccccc1C2=O [Compound 32, 1-Amino-4-bromoanthraquinone-2-sulfonic acid benzylamide] | – |
| 0% | 0% | 0% | Nc1c(S(=O)(=O)NCCc2ccccc2)cc(Br)c2c1C(=O)c1ccccc1C2=O [Compound 33, 1-Amino-4-bromoanthraquinone-2-sulfonic acid phenethylamide] | – |
